One series concerns the target T1, Adenosine receptor A1 (Homo sapiens, UniProt P30542).
T1 sequence (P30542 whole entry): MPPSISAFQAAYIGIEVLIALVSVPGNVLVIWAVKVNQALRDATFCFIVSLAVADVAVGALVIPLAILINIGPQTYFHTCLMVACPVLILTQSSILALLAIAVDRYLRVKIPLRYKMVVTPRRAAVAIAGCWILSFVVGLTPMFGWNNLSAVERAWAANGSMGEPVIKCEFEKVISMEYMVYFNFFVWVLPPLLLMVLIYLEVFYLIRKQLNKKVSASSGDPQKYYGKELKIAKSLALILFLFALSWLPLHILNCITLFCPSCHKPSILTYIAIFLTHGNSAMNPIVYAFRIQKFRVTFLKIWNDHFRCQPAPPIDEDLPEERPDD
Description: Displacement of [3H]DPCPX from human adenosine A1 receptor expressed in CHO cells. The format is cell-based. (In a radioligand displacement assay an active substance lowers the binding of a labelled ligand.)

For another series, the target named is T2, Adenosine receptor A3 (Homo sapiens, UniProt P0DMS8).
T2 sequence (P0DMS8 whole entry): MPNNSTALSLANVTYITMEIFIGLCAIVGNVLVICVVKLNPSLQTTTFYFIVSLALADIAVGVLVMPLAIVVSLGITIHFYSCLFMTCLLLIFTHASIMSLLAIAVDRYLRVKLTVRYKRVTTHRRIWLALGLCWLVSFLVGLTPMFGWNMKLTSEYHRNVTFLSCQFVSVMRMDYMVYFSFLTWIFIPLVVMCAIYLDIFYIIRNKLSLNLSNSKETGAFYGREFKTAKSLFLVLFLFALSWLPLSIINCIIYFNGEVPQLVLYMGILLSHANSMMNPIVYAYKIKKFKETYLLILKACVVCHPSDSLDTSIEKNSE
Description: Displacement of [3H]NECA from human adenosine A3 receptor expressed in HeLa cells. The format is cell-based.

Another series has as its target T3, Adenosine receptor A2b (Homo sapiens, UniProt P29275).
T3 sequence (P29275 whole entry): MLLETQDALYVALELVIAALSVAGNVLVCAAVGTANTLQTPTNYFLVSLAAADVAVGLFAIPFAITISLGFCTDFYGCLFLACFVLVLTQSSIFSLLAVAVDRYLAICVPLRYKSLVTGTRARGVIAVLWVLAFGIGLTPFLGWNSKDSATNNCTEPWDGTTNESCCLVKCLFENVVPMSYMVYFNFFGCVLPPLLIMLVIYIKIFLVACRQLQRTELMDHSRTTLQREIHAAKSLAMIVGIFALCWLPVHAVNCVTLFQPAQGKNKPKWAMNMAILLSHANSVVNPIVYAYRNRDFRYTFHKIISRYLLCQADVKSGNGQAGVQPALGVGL
The series can be described thus: Displacement of [3H]DPCPX from human adenosine A2B receptor expressed in HEK293 cells. The format is cell-based.

Series [1] is described as follows: Solubility at pH 1.2. The format is physicochemical. The following applies: buffer.
A short description of series [2]: AUC in rat at 10 mg/kg, po. The format is ADME, organism-based. Set-up: dose 10 mg/kg, route oral. The following applies: plasma.
Series [3] is described as follows: Tmax in rat at 10 mg/kg, po. It is filed as ADME, organism-based. Set-up: dose 10 mg/kg, route oral. The following applies: in vivo.
A short description of series [4]: Solubility of the compound. It is filed as physicochemical.
Series [5] has as its target Adenosine receptors; A1 & A2b (Homo sapiens) (UniProt P30542+P29275). The series can be described thus: Selectivity for human adenosine A2B receptor over adenosine A1 receptor. The format is protein assay.
In series [6] the target is Adenosine receptors; A2b & A3 (Homo sapiens) (UniProt P29275+P0DMS8). The series can be described thus: Selectivity for human adenosine A2B receptor over adenosine A3 receptor. The format is protein assay.

In brackets after ≈: the same amount, converted by molar mass.

For the compound `Cn1c(=O)c2[nH]c(-c3ccc(S(=O)(=O)N4CCN(Cc5cccc(F)c5)CC4)cc3)cc2n(C)c1=O`, the IC50 was determined as 152 nM on Adenosine receptor A1 and 8890 nM on Adenosine receptor A3.
With `Cn1c(=O)c2[nH]c(-c3ccc(S(=O)(=O)NC4CCN(Cc5ccccc5)CC4)cc3)cc2n(C)c1=O`, the IC50 at Adenosine receptor A2b was 43 nM.
On to `Cn1c(=O)c2[nH]c(-c3ccc(S(=O)(=O)NCCOc4ccccn4)cc3)cc2n(C)c1=O`, for which the IC50 at Adenosine receptor A1 came to 396 nM; on Adenosine receptor A3, 6440 nM.
In the case of `CCCn1c(=O)c2[nH]c(-c3ccc(S(=O)(=O)NCc4ccc(OC)cn4)cc3)cc2n(C)c1=O`, the IC50 at Adenosine receptor A2b turned out to be 15 nM; on Adenosine receptor A1 it was 12 nM; on Adenosine receptor A3 it was 7600 nM.
As for `Cn1c(=O)c2[nH]c(-c3ccc(S(=O)(=O)N4CCN(Cc5ccc(F)cc5F)CC4)cc3)cc2n(C)c1=O`, the IC50 amounted to 7 nM on Adenosine receptor A2b and 126 nM on Adenosine receptor A1.
As to `CCn1c(=O)c2[nH]c(-c3ccc(S(=O)(=O)NC4CCN(Cc5ccc(F)cc5)CC4)cc3)cc2n(CC)c1=O`, the values for the IC50 on Adenosine receptor A2b, at Adenosine receptor A1 and at Adenosine receptor A3 were 12 nM, 205 nM and 4310 nM, respectively.
Turning to `Cn1c(=O)c2[nH]c(-c3ccc(S(=O)(=O)N4CCN(Cc5ccccc5)CC4)cc3)cc2n(C)c1=O`, the values for the half-inhibitory concentration (IC50) on Adenosine receptor A1 and on Adenosine receptor A3 were 415 nM and 3170 nM, respectively. In series [1], this compound yielded a solubility of 70 µg/mL (≈ 142 µM). The compound also had an exposure (AUC) in [2] of 252 ng·h/mL. In series [3], the Tmax was 6 h.
As to `CCn1c(=O)c2[nH]c(-c3ccc(S(=O)(=O)NCCc4ccccn4)cc3)cc2n(CC)c1=O`, the IC50 at Adenosine receptor A2b was found to be 75 nM; on Adenosine receptor A1 it was 140 nM; at Adenosine receptor A3 it was 18900 nM.
On to `Cn1c(=O)c2[nH]c(-c3ccc(S(=O)(=O)N4CCN(Cc5ccc(F)cc5)CC4)cc3)cc2n(C)c1=O`, for which the IC50 on Adenosine receptor A2b is 10 nM.
With `CCCn1c(=O)c2[nH]c(-c3ccc(S(=O)(=O)NCCc4ccccn4)cc3)cc2n(C)c1=O`, the IC50 was 123 nM on Adenosine receptor A1 and 844 nM on Adenosine receptor A3.
`CN(C1CCN(Cc2ccccc2)CC1)S(=O)(=O)c1ccc(-c2cc3c([nH]2)c(=O)n(C)c(=O)n3C)cc1` displayed an IC50 at Adenosine receptor A2b of 90 nM.
In turn, `Cn1c(=O)c2[nH]c(-c3ccc(OCC(=O)Nc4ccc(Br)cc4)cc3)cc2n(C)c1=O` displayed a solubility in [4] of less than 10 µg/mL. Moreover, the area under the curve (AUC) in series [2] was less than 20 ng·h/mL.
In the case of `COc1ccc(CNS(=O)(=O)c2ccc(-c3cc4c([nH]3)c(=O)n(C)c(=O)n4C)cc2)nc1`, the results for the IC50 at Adenosine receptor A2b, at Adenosine receptor A1 and on Adenosine receptor A3 were 20 nM, 101 nM and 38000 nM, respectively.
For the compound `Cn1c(=O)c2[nH]c(-c3ccc(S(=O)(=O)N4CCN(Cc5ccc(Cl)s5)CC4)cc3)cc2n(C)c1=O`, the IC50 worked out at 102 nM at Adenosine receptor A1 and 5250 nM on Adenosine receptor A3.
As for `CCCn1c(=O)c2[nH]c(-c3ccc(S(=O)(=O)NC4CCN(Cc5ccccc5)CC4)cc3)cc2n(CCC)c1=O`, the IC50 was determined as 18 nM at Adenosine receptor A2b, 59 nM on Adenosine receptor A1 and 1470 nM at Adenosine receptor A3.
Turning to `CCCn1c(=O)n(C)c(=O)c2[nH]c(-c3ccc(S(=O)(=O)N4CCN(Cc5ccc6c(c5)OCO6)CC4)cc3)cc21`, the IC50 at Adenosine receptor A2b was 13 nM; at Adenosine receptor A1 it was 102 nM; on Adenosine receptor A3 it was 14900 nM.
On to `COc1ccc(NS(=O)(=O)c2ccc(-c3cc4c([nH]3)c(=O)n(C)c(=O)n4C)cc2)cn1`, for which the IC50 is 54 nM at Adenosine receptor A1 and 1520 nM at Adenosine receptor A3.
On to `Cn1c(=O)c2[nH]c(-c3ccc(S(=O)(=O)N4CCN(Cc5ccc(Br)cc5)CC4)cc3)cc2n(C)c1=O`, for which the IC50 came out at 1 nM on Adenosine receptor A2b, 183 nM at Adenosine receptor A1 and 12300 nM at Adenosine receptor A3. Also, the Selectivity ratio in [5] is 183; in series [6], 12300.
For `Cn1c(=O)c2[nH]c(-c3ccc(S(=O)(=O)NCCc4ccccn4)cc3)cc2n(C)c1=O`, the IC50 on Adenosine receptor A1 came to 150 nM; on Adenosine receptor A3 it was 2080 nM. This compound also returned a solubility in series [1] of 57 µg/mL (≈ 130 µM). Besides, the AUC in series [2] was 985 ng·h/mL. The Tmax in [3] stood at 6 h.
Consider `Cn1c(=O)c2[nH]c(-c3ccc(S(=O)(=O)N4CCN(Cc5ccncc5)CC4)cc3)cc2n(C)c1=O`, for which the IC50 at Adenosine receptor A2b was determined as 27 nM.
On Adenosine receptor A2b, `Cn1c(=O)c2[nH]c(-c3ccc(S(=O)(=O)N4CCN(c5ccccc5)CC4)cc3)cc2n(C)c1=O` gave an IC50 of 6 nM. This compound also yielded a solubility in [4] of less than 10 µg/mL.
For `CCCn1c(=O)c2[nH]c(-c3ccc(S(=O)(=O)N4CCN(Cc5ccc(C#N)cc5)CC4)cc3)cc2n(C)c1=O`, the IC50 stood at 6 nM on Adenosine receptor A2b, 370 nM on Adenosine receptor A1 and 950 nM on Adenosine receptor A3. Also, the Selectivity ratio in [5] is 62; in series [6], 160.
As for `CCn1c(=O)c2[nH]c(-c3ccc(S(=O)(=O)N4CCN(Cc5cccc(F)c5)CC4)cc3)cc2n(CC)c1=O`, the IC50 on Adenosine receptor A2b was determined as 15 nM; on Adenosine receptor A1 it was 350 nM; on Adenosine receptor A3 it was 21900 nM.
On to `CCCn1c(=O)n(C)c(=O)c2[nH]c(-c3ccc(S(=O)(=O)N4CCN(Cc5cccc(F)c5)CC4)cc3)cc21`, for which, at Adenosine receptor A2b, the IC50 is 17 nM.
As for `Cn1c(=O)c2[nH]c(-c3ccc(S(=O)(=O)Nc4ccccn4)cc3)cc2n(C)c1=O`, the IC50 at Adenosine receptor A1 was found to be 68 nM; on Adenosine receptor A3, 1320 nM.

The term IC50 denotes the point on the concentration scale where inhibition reaches its midpoint. The low end stands for greater potency, the high end for weaker potency. Usually solubility stands for the dissolved amount per volume that the medium holds. In general, AUC refers to concentration integrated over time. Low readings indicate less exposure, high ones more exposure. The term Tmax denotes the time at which the peak concentration occurs.
